Results taken from US9447136B2, “Semisynthetic derivatives of Nystatin A1” (BLIRT S.A., priority 2012, dated 2016).
Like-named read-outs stand apart in the source and are kept apart here.

Experiments:
Human erythrocytes = assay: Hemotoxicity (hemolytic activity)
Description: The hemotoxicity determination were carried out by the serial dilutions method, according to the procedure described earlier (Ślisz, M., et al., E., J Antibiot 57: 669-678 (2004)). Human erythrocytes were suspensed in the solution of saline to obtain a cell density of suspension 2×10^7/ml. Suitable amounts of diluted solutions of compounds were added to the cell suspension in tubes and were incubated at 37° C. for 30 minutes and then centrifuged (1700×g, 10 min, 4° C.). The concentration of hemoglobin in supernatant after centrifugation of erythrocytes suspension were determined by measuring the absorbance at wavelength λ=540 nm (A540). The maximum level of hemolysis was obtained after incubation of cells suspension in the presence of 0.1% Tritone X-100 (control sample). […] From these graphs, the EH50 values were read which are the interpolated concentrations of compound, for which the A540 value is exactly 50% of the A540 value measured for the control sample.

[1] = tested on: Candida glabrata DSM 11226; assay: Antifungal activity in vitro, serial dilution in RPMI 1640; assay type: cell-based; conditions: Table 2A; RPMI 1640, pH 7.0
Description: (§1) For the determination of antifungal activity in vitro we used method of serial dilution in buffered medium RPMI 1640, pH 7.0, in a 96-wells microplates, according to the standard procedure (National Committee for Clinical Laboratory Standards. Reference method for broth dilution antifungal susceptibility testing of yeast, approved standard, 2nd ed. M27-A2 vol. 22 Wayne, Pa., 2002). The optical density of cells suspension was measured using a microplates reader (Victor^3, Perkin-Elmer) at the wavelength λ=531 nm (A531). On the basis of obtained results the diagrams of relation between A531 values and concentration of examined compound were made. From these graphs, the IC50 values were read, which were the interpolated concentrations of a tested compound, at which the A531 value was exactly 50% of the A531 value for the control sample. Moreover, MIC values, that are the lowest concentration of tested compound at which the A531 value were at most 20% of the A531 value measured for the control sample.

[2] = tested on: Candida tropicalis KKP 334; assay: as above; assay type: cell-based; conditions: Table 2A; RPMI 1640, pH 7.0
Description: as §1

[3] = tested on: Candida albicans ATCC 10231; assay: as above; assay type: cell-based; conditions: Table 2A, RPMI 1640, pH 7.0; for Antifungal activity Candida albicans ATCC 10231 IC50: A531 50% of control; for Antifungal activity Candida albicans ATCC 10231 MIC: A531 at most 20% of control
Description: as §1

[4] = tested on: Saccharomyces cerevisiae ATCC 9763; assay: as above; assay type: cell-based; conditions: Table 2A; RPMI 1640, pH 7.0; A531 at most 20% of control
Description: as §1

Candida krusei DSM 6128 = assay: as above; assay type: cell-based; conditions: Table 2A; RPMI 1640, pH 7.0
Description: as §1

Molecule: CC1C=CC=CCCC=CC=CC=CC=CC(OC2OC(C)C(O)C(NC(=O)C(N)COC(C)(C)C)C2O)CC2OC(O)(CC(O)CC(O)C(O)CCC(O)CC(O)CC(=O)OC(C)C(C)C1O)CC(O)C2C(=O)O [Compound N36, N-L-(O-tert-butyl)serylnystatin A1]
- % of hemolysis at the concentration 300 μg ml^−1 (Human erythrocytes): 8.24%
- EH10 (Human erythrocytes): >300 µg/mL

Molecule: CNC(C)(C)C(=O)NC1C(O)C(C)OC(O[C@H]2/C=C/C=C/C=C/C=C/CC/C=C/C=C/[C@H](C)[C@@H](O)[C@@H](C)[C@H](C)OC(=O)C[C@H](O)C[C@H](O)C[C@H](O)CC[C@@H](O)[C@H](O)CC3(O)C[C@H](O)[C@@H](C(=O)O)[C@H](C2)O3)C1O (stereo partly shown) [Compound N43, N-[2-(N-methylamino)-2-methylpropan]nystatin A1]
- EH10 (Human erythrocytes; human erythrocytes, concentration causing 10% of hemolysis): 283.84 µg/mL
- Antifungal activity Candida glabrata DSM 11226 MIC [1]: 8 µg/mL
- Antifungal activity Candida tropicalis KKP 334 MIC [2]: 8 µg/mL
- Antifungal activity Candida albicans ATCC 10231 IC50 [3]: 5.46 µg/mL
- Antifungal activity Candida albicans ATCC 10231 MIC [3]: 8 µg/mL
- Antifungal activity Saccharomyces cerevisiae ATCC 9763 MIC [4]: 8 µg/mL
- Antifungal activity Candida krusei DSM 6128 MIC (Candida krusei DSM 6128): 16 µg/mL

Molecule: N—(N′-cyclohexylsuccinimidyl)nystatin A1 [Compound N5]
- Antifungal activity Candida glabrata DSM 11226 MIC [1]: 16 µg/mL
- Antifungal activity Candida tropicalis KKP 334 MIC [2]: 8 µg/mL
- Antifungal activity Candida albicans ATCC 10231 IC50 [3]: 5.77 µg/mL
- Antifungal activity Candida albicans ATCC 10231 MIC [3]: 8 µg/mL
- Antifungal activity Saccharomyces cerevisiae ATCC 9763 MIC [4]: 8 µg/mL
- Antifungal activity Candida krusei DSM 6128 MIC (Candida krusei DSM 6128): 16 µg/mL

Molecule: CC1OC(O[C@H]2/C=C/C=C/C=C/C=C/CC/C=C/C=C/[C@H](C)[C@@H](O)[C@@H](C)[C@H](C)OC(=O)C[C@H](O)C[C@H](O)C[C@H](O)CC[C@@H](O)[C@H](O)CC3(O)C[C@H](O)[C@@H](C(=O)O)[C@H](C2)O3)C(O)C(NC2CC(=O)N(Cc3ccccc3)C2=O)C1O (stereo partly shown) [Compound N1, N—(N′-benzylsuccinimidyl)nystatin A1]
- Antifungal activity Candida glabrata DSM 11226 MIC [1]: 16 µg/mL
- Antifungal activity Candida tropicalis KKP 334 MIC [2]: 8 µg/mL
- Antifungal activity Candida albicans ATCC 10231 IC50 [3]: 5.36 µg/mL
- Antifungal activity Candida albicans ATCC 10231 MIC [3]: 8 µg/mL
- Antifungal activity Saccharomyces cerevisiae ATCC 9763 MIC [4]: 8 µg/mL
- Antifungal activity Candida krusei DSM 6128 MIC (Candida krusei DSM 6128): 32 µg/mL

Molecule: CC1OC(O[C@H]2/C=C/C=C/C=C/C=C/CC/C=C/C=C/[C@H](C)[C@@H](O)[C@@H](C)[C@H](C)OC(=O)C[C@H](O)C[C@H](O)C[C@H](O)CC[C@@H](O)[C@H](O)CC3(O)C[C@H](O)[C@@H](C(=O)O)[C@H](C2)O3)C(O)C(NC(=O)[C@@H](N)CCC(=O)OC(C)(C)C)C1O (stereo partly drawn) [Compound N35, N-L-(O-tert-butyl)glutamylnystatin A1]
- Antifungal activity Candida glabrata DSM 11226 MIC [1]: 16 µg/mL
- Antifungal activity Candida tropicalis KKP 334 MIC [2]: 16 µg/mL
- Antifungal activity Candida albicans ATCC 10231 IC50 [3]: 6.36 µg/mL
- Antifungal activity Candida albicans ATCC 10231 MIC [3]: 8 µg/mL
- Antifungal activity Saccharomyces cerevisiae ATCC 9763 MIC [4]: 8 µg/mL
- Antifungal activity Candida krusei DSM 6128 MIC (Candida krusei DSM 6128): 16 µg/mL

Molecule: CCCN(CC1(O)OCC(O)C(O)C1O)C1C(O)C(C)OC(OC2C=CC=CC=CC=CCCC=CC=CC(C)C(O)C(C)C(C)OC(=O)CC(O)CC(O)CC(O)CCC(O)C(O)CC3(O)CC(O)C(C(=O)O)C(C2)O3)C1O (stereo not shown) [Compound N27, N-fructosyl-N-n-propylnystatin A1]
- % of hemolysis at the concentration 300 μg ml^−1 (Human erythrocytes): 7.34%
- EH10 (Human erythrocytes): >300 µg/mL

Molecule: C[C@@H]1[C@H](O)[C@@H](C)/C=C/C=C/CC/C=C/C=C/C=C/C=C/[C@H](O[C@@H]2O[C@H](C)[C@@H](O)[C@H](NC(=O)[C@H](N)COC(C)(C)C)[C@@H]2O)C[C@@H]2O[C@](O)(C[C@@H](O)C[C@@H](O)[C@H](O)CC[C@@H](O)C[C@@H](O)CC(=O)O[C@H]1C)C[C@H](O)[C@H]2C(=O)O [Compound N38, N-D-(O-tert-butyl)serylnystatin A1]
- Antifungal activity Candida glabrata DSM 11226 MIC [1]: 16 µg/mL
- Antifungal activity Candida tropicalis KKP 334 MIC [2]: 8 µg/mL
- Antifungal activity Candida albicans ATCC 10231 IC50 [3]: 5.95 µg/mL
- Antifungal activity Candida albicans ATCC 10231 MIC [3]: 8 µg/mL
- Antifungal activity Saccharomyces cerevisiae ATCC 9763 MIC [4]: 8 µg/mL
- Antifungal activity Candida krusei DSM 6128 MIC (Candida krusei DSM 6128): 16 µg/mL

Molecule: CC1OC(O[C@H]2/C=C/C=C/C=C/C=C/CC/C=C/C=C/[C@H](C)[C@@H](O)[C@@H](C)[C@H](C)OC(=O)C[C@H](O)C[C@H](O)C[C@H](O)CC[C@@H](O)[C@H](O)CC3(O)C[C@H](O)[C@@H](C(=O)O)[C@H](C2)O3)C(O)C(NC2CC(=O)N(c3ccc(Br)cc3)C2=O)C1O (stereo partly shown) [Compound N2, N—(N′-4-bromophenylsuccinimidyl)nystatin A1]
- Antifungal activity Candida glabrata DSM 11226 MIC [1]: 16 µg/mL
- Antifungal activity Candida tropicalis KKP 334 MIC [2]: 8 µg/mL
- Antifungal activity Candida albicans ATCC 10231 IC50 [3]: 4.99 µg/mL
- Antifungal activity Candida albicans ATCC 10231 MIC [3]: 8 µg/mL
- Antifungal activity Saccharomyces cerevisiae ATCC 9763 MIC [4]: 8 µg/mL
- Antifungal activity Candida krusei DSM 6128 MIC (Candida krusei DSM 6128): 16 µg/mL

Molecule: Cc1cccc(C)c1N1C(=O)CC(NC2C(O)C(C)OC(O[C@H]3/C=C/C=C/C=C/C=C/CC/C=C/C=C/[C@H](C)[C@@H](O)[C@@H](C)[C@H](C)OC(=O)C[C@H](O)C[C@H](O)C[C@H](O)CC[C@@H](O)[C@H](O)CC4(O)C[C@H](O)[C@@H](C(=O)O)[C@H](C3)O4)C2O)C1=O (stereo partly shown) [Compound N4, N—(N′-2,6-dimethyl-phenylsuccinimidyl)nystatin A1]
- Antifungal activity Candida glabrata DSM 11226 MIC [1]: 16 µg/mL
- Antifungal activity Candida tropicalis KKP 334 MIC [2]: 8 µg/mL
- Antifungal activity Candida albicans ATCC 10231 IC50 [3]: 6.32 µg/mL
- Antifungal activity Candida albicans ATCC 10231 MIC [3]: 8 µg/mL
- Antifungal activity Saccharomyces cerevisiae ATCC 9763 MIC [4]: 8 µg/mL
- Antifungal activity Candida krusei DSM 6128 MIC (Candida krusei DSM 6128): 16 µg/mL

Molecule: CC1OC(O[C@H]2/C=C/C=C/C=C/C=C/CC/C=C/C=C/[C@H](C)[C@@H](O)[C@@H](C)[C@H](C)OC(=O)C[C@H](O)C[C@H](O)C[C@H](O)CC[C@@H](O)[C@H](O)CC3(O)C[C@H](O)[C@@H](C(=O)O)[C@H](C2)O3)C(O)C(NC(=O)[C@H](N)Cc2cccnc2)C1O (stereo partly drawn) [Compound N42, N-D-β-(pyridin-3-yl)alanylnystatin A1]
- Antifungal activity Candida glabrata DSM 11226 MIC [1]: 32 µg/mL
- Antifungal activity Candida tropicalis KKP 334 MIC [2]: 16 µg/mL
- Antifungal activity Candida albicans ATCC 10231 IC50 [3]: 10.54 µg/mL
- Antifungal activity Candida albicans ATCC 10231 MIC [3]: 16 µg/mL
- Antifungal activity Saccharomyces cerevisiae ATCC 9763 MIC [4]: 8 µg/mL
- Antifungal activity Candida krusei DSM 6128 MIC (Candida krusei DSM 6128): 32 µg/mL

Molecule: Cc1cc(C)c(N2C(=O)CC(N[C@@H]3[C@H](O)[C@H](O[C@H]4/C=C/C=C/C=C/C=C/CC/C=C/C=C/[C@H](C)[C@@H](O)[C@@H](C)[C@H](C)OC(=O)C[C@H](O)C[C@H](O)CC[C@@H](O)[C@H](O)C[C@H](O)C[C@]5(O)C[C@H](O)[C@@H](C(=O)O)[C@H](C4)O5)O[C@H](C)[C@H]3O)C2=O)c(C)c1 (stereo partly shown) [Compound N3, N—(N′-2,4,6-trimethylphenylsuccinimidyl)nystatin A1]
- Antifungal activity Candida glabrata DSM 11226 MIC [1]: 32 µg/mL
- Antifungal activity Candida tropicalis KKP 334 MIC [2]: 16 µg/mL
- Antifungal activity Candida albicans ATCC 10231 IC50 [3]: 11.76 µg/mL
- Antifungal activity Candida albicans ATCC 10231 MIC [3]: 16 µg/mL
- Antifungal activity Saccharomyces cerevisiae ATCC 9763 MIC [4]: 8 µg/mL
